# Measurements taken from patent US6806230B1, “Pyrimidine derivatives and herbicides containing them” (Kumiai Chemical Industry Co., Ltd., priority 1999, dated 2004).
# Tests used:
# Type in all cases: in vivo
# barnyard grass (Eo) [1] = assay: Test Example 1: herbicidal effects by flooded paddy field treatment; parameters: herbicidal effects, Eo (barnyard grass):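 0-5 growth inhibition grade; 5 = over 90%; 4 = 70-90%; 3 = 50-70%; 2 = 30-50%; 1 = 10-30%; 0 = under 10%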; settings: for herbicidal effects, Eo (barnyard grass): dose 100 g active ingredient per 10 ares, examined on the 21st day after treatment, standards of Table 44;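 for Herbicidal effect index, Eo: 0-5 growth inhibition grade; 5 = over 90%; 4 = 70-90%; 3 = 50-70%; 2 = 30-50%; 1 = 10-30%; 0 = under 10%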
# Method in brief: (§1)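 Seeds were sown in puddled paddy soil in pots and flooded to 3 cm. The next day a water-diluted wettable powder was dripped onto the water surface at 100 g active ingredient per 10 ares. Plants grew in a greenhouse, and herbicidal effect was scored on a rating scale 21 days after treatment.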
# monochoria (Mo) [2] = assay: as above; parameters: herbicidal effects, Mo (monochoria):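 0-5 growth inhibition grade; 5 = over 90%; 4 = 70-90%; 3 = 50-70%; 2 = 30-50%; 1 = 10-30%; 0 = under 10%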; settings: for herbicidal effects, Mo (monochoria): dose 100 g active ingredient per 10 ares, examined on the 21st day after treatment, standards of Table 44
# Method in brief: as §1
# barnyard grass (Ec) [3] = assay: Test Example 2: herbicidal effects by upland soil treatment; parameters: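 0-5 growth inhibition grade; 5 = over 90%; 4 = 70-90%; 3 = 50-70%; 2 = 30-50%; 1 = 10-30%; 0 = under 10%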; settings: dose 100 g active ingredient per 10 ares, examined on the 21st day after treatment
# Method in brief: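 Pre-emergence test: barnyard grass and green foxtail sown in upland soil, then soil surface sprayed with wettable-powder formulation at 100 g active ingredient per 10 ares (100 l per 10 ares). Grown in greenhouse; herbicidal effect scored on a rating scale 21 days after treatment.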
# barnyard grass (Ec) [4] = assay: Test Example 3: herbicidal effects by foliage treatment in upland field; parameters: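 0-5 growth inhibition grade; 5 = over 90%; 4 = 70-90%; 3 = 50-70%; 2 = 30-50%; 1 = 10-30%; 0 = under 10%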; settings: dose 100 g active ingredient per 10 ares, examined on the 14th day after treatment
# Experimental: In a 80 cm^2 plastic pot, upland soil was filled, and seeds of barnyard grass (Ec) and green foxtail (Se) were sown and cultured in a green house for 2 weeks. Then, a wettable powder prepared in accordance with Formulation Example 1 was diluted with water and applied to the entire foliage from above the plants by means of a small size spray at a rate of 100 l per 10 ares so that the dose of the active ingredient would be 100 g per 10 ares. Thereafter, cultivation was carried out in a green house, and on the 14th day after the treatment, the herbicidal effects were examined in accordance with the standards of Table 44.
# barnyard grass (Eo) [5] = assay: Test Example 4: selectivity for a crop plant by flooded paddy field treatment; parameters: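 0-5 growth inhibition grade; 5 = over 90%; 4 = 70-90%; 3 = 50-70%; 2 = 30-50%; 1 = 10-30%; 0 = under 10%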; settings: barnyard grass, dose 25 gai/10a, 21st day after treatment, index per Table 44
# Experimental: (§2) In a 100 cm^2 plastic pot, a paddy field soil was filled and paddled. Then, seeds of barnyard grass (Eo) and monochoria (Mo) were sown, and rice (Or) of second leaf stage was transplanted, and water was introduced to a depth of 3 cm. Next day, a wettable powder prepared in accordance with Formulation Example 1 was diluted with water and dropwise applied to the water surface. The dose was 25 g of the active ingredient per 10 ares. Thereafter, cultivation was carried out in a green house, and on the 21st day after the treatment, the herbicidal effects were examined in accordance with the standards of Table 44.
# monochoria (Mo) [6] = assay: as above; parameters: scale not given here; settings: monochoria, dose 25 gai/10a, 21st day after treatment, index per Table 44
# Experimental: as §2
# rice (Or) = assay: as above; parameters: scale not given here; settings: rice transplanted at second leaf stage, dose 25 gai/10a, 21st day after treatment, index per Table 44
# Experimental: as §2
# [7] = dose 100 gai/10a, examined on 21st day after treatment, index 0-5 per Table 44
# 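Throughout, for Herbicidal effect index, Mo: 0-5 growth inhibition grade; 5 = over 90%; 4 = 70-90%; 3 = 50-70%; 2 = 30-50%; 1 = 10-30%; 0 = under 10%.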
Compound,"herbicidal effects, Eo (barnyard grass) (barnyard grass (Eo) [1])","herbicidal effects, Mo (monochoria) (monochoria (Mo) [2])","Ec (herbicidal effects, index) (barnyard grass (Ec) [3])","Ec (herbicidal effects, index) (barnyard grass (Ec) [4])","Herbicidal effect index, Eo (barnyard grass (Eo) [1]; [7])","Herbicidal effect index, Mo (monochoria (Mo) [2]; [7])",Eo (herbicidal effect index) (barnyard grass (Eo) [5]),Mo (herbicidal effect index) (monochoria (Mo) [6]),Or (herbicidal effect index on crop) (rice (Or))
CCc1ncncc1C(C(C)C)N(C)C(=O)N(C)c1ccc(Cl)cc1 (racemic) [1-540],5,5,5,4,,,,,
CCC(c1cncnc1C(C)C)N(C)C(=O)Cc1ccc(F)cc1 (racemic) [1-437],5,5,5,4,,,,,
CCc1ncncc1C(C(C)C)N(C)C(=O)Cc1ccccc1 (racemic) [1-432],5,5,5,5,,,,,
CCCC(c1cncnc1C(C)C)N(C)C(=O)Cc1ccccc1 (racemic) [1-449],5,5,5,4,,,,,
CCc1ncncc1C(C(C)C)N(C)C(=O)Cc1ccc(C)cc1 (racemic) [1-435],5,5,5,4,,,,,
CCCC(c1cncnc1C(F)(F)F)N(C)C(=O)Cc1ccccc1 (racemic) [Compound 1-111],,,,4,5,4,,,
O=C(Cc1ccccc1)NC(c1cncnc1C(F)(F)Cl)C1CC1 (racemic) [Compound 1-1],,,,4,,,,,
CC(C(=O)N(C)C(c1cncnc1C#N)C(C)C)c1ccc(Cl)cc1 (mixture of isomers) [1-508],,,5,4,,,,,
C#CCN(C(=O)Cc1ccc(F)cc1)C(c1cncnc1C(C)C)C(C)C (racemic) [1-622],,,4,4,,,,,
C#CCN(C(=O)Cc1ccc(C)cc1)C(c1cncnc1CCC)C(C)C (racemic) [1-619],,,5,4,,,,,
C#CCN(C(=O)Cc1ccc(F)cc1)C(c1cncnc1CCC)C(C)C (racemic) [1-617],,,5,4,,,,,
C#CCN(C(=O)Cc1ccsc1)C(c1cncnc1C(C)C)C(C)C (racemic) [2-79],,,5,4,,,,,
CN(C(=O)Cc1ccc(Cl)s1)C(c1ccccc1)c1cncnc1C(F)(F)F (racemic) [2-31],5,5,5,,,,5,5,0
CCCc1ncncc1C(C(C)C)N(C)C(=O)Cc1ccc(C)cc1 (racemic) [1-448],5,5,5,,,,5,5,1
CN(C(=O)Cc1ccc(Cl)s1)C(c1cncnc1C(F)(F)F)C1(C)CC1 (racemic) [2-58],5,5,5,,,,5,5,1
CC(C)C(c1cncnc1C(F)(F)F)N(C)C(=O)Cc1ccc2ccccc2c1 (racemic) [2-1],5,5,5,,,,5,5,0
CON=Cc1ncncc1C(C(C)C)N(C)C(=O)Cc1ccc(Cl)cc1 (racemic) [1-498],5,5,5,,,,5,5,0
CCC(c1cncnc1C(C)(C)C)N(C)C(=O)Cc1ccc(C)cc1 (racemic) [1-573],5,5,5,,,,5,5,1
CCc1ncncc1C(C(C)C)N(C)C(=O)Oc1ccc(Cl)cc1 (racemic) [1-642],,,4,4,,,,,
CN(C(=O)Cc1ccc(Cl)cc1F)C(c1ccccc1)c1cncnc1C(F)(F)F (racemic) [Compound 1-250],5,5,4,,,,5,5,1
C#CCN(C(=O)Cc1ccc(F)c(F)c1)C(c1cncnc1C(F)(F)F)C(C)C (racemic) [1-614],5,5,5,,,,5,5,1
C=CCN(C(=O)Cc1ccc(C)cc1)C(c1cncnc1C(F)(F)F)C(C)C (racemic) [1-521],5,5,5,,,,5,5,1
CC(C)c1ncncc1C(C(C)C)N(C)C(=O)Cc1ccc(F)cc1 (racemic) [Compound 1-129],5,5,,5,,,,,
CC(C)C(c1cncnc1C(F)(F)F)N(C)C(=O)Cc1cc(F)c(F)c(F)c1 (racemic) [1-418],5,5,5,,,,5,5,1
CN(C(=O)Cc1cccs1)C(c1ccccc1)c1cncnc1C(F)(F)F (racemic) [2-19],5,5,5,,,,5,5,1
C#CCN(C(=O)Cc1ccc(F)cc1)C(c1cncnc1CC)C(C)(C)C (racemic) [1-627],5,5,5,,,,5,5,1
Cc1ccccc1C(c1cncnc1C(F)(F)F)N(C)C(=O)Cc1ccc(F)cc1 (racemic) [1-551],5,5,5,,,,5,5,0
CCOc1ncncc1C(C(C)C)N(C)C(=O)Cc1ccc(Cl)cc1 (racemic) [1-661],,,,5,,,,,
Cc1ccc(CC(=O)N(CC#N)C(c2cncnc2C(F)(F)F)C(C)C)cc1 (racemic) [1-483],5,5,5,,,,5,5,1
